Measurements reported in patent US4216206A (priority 1977, dated 1980).

Test system: mouse
Assay: acute toxicity in the mouse over 7 days
Assay type: in vivo
Settings: i.v.
Protocol: The acute toxicities of the antibiotics were determined in the mouse over 7 days.

Thiostrepton
LD50: < 100 mg/kg
